From patent US20160194299A1 (priority 2013, published 2016)
In brackets after ≈: the same amount, converted by molar mass. Like-named read-outs stand apart in the source and are kept apart here.

Legend:
Mtb [1] = assay: microbe, parasite or virus in culture; format: cell-based, Mycobacterium tuberculosis; settings: Mycobacterium tuberculosis, read-out: MIC (I)
Mtb [2] = assay: microbe, parasite or virus in culture; format: cell-based, Mycobacterium tuberculosis; settings: Mycobacterium tuberculosis, read-out: MIC (III)
in vitro = settings: African green monkey

Row | SMILES | MIC (Mtb [1]) | MIC (Mtb [2]) | CC50 (in vitro)
1 | CCOC(=O)NC(=O)c1ccsc1NC(=O)c1ccc2nccn2n1 [Compound 77] | 1 to 3 µg/mL (≈ 2.78 to 8.35 µM) | > 25 µg/mL | > 50 µg/mL
2 | CCOC(=O)NC(=O)c1ccsc1NC(=O)c1nc2cnccc2s1 [Compound 82] | < 1 µg/mL | < 5 µg/mL | > 50 µg/mL
3 | CCOC(=O)NC(=O)c1ccsc1NC(=O)c1nc2cccnc2s1 [Compound 83] | < 1 µg/mL | < 5 µg/mL | > 50 µg/mL
4 | CCOC(=O)NC(=O)c1ccsc1NC(=O)c1nc2c(s1)CNCC2 [Compound 84] | 1 to 3 µg/mL (≈ 2.63 to 7.89 µM) | > 25 µg/mL | > 50 µg/mL
5 | CCOC(=O)NC(=O)c1ccsc1NC(=O)c1nc2c(s1)CCN(C)C2 [Compound 85] | 1 to 3 µg/mL (≈ 2.53 to 7.6 µM) | < 5 µg/mL | > 50 µg/mL
6 | CCOC(=O)NC(=O)c1ccsc1NC(=O)c1ccnnc1 [Compound 86] | 1 to 3 µg/mL (≈ 3.12 to 9.37 µM) | 5 to 25 µg/mL (≈ 15.6 to 78 µM) | > 50 µg/mL
7 | CCOC(=O)NC(=O)c1ccsc1NC(=O)c1cnc2ccccc2n1 [Compound 87] | < 1 µg/mL | < 5 µg/mL | > 50 µg/mL
8 | CCOC(=O)NC(=O)c1ccsc1NC(=O)c1sc2ccccc2c1Cl [Compound 88] | < 1 µg/mL | 5 to 25 µg/mL (≈ 12.2 to 61.1 µM) | > 50 µg/mL
9 | CCOC(=O)NC(=O)c1ccsc1NC(=O)c1ccc2ncccc2c1 [Compound 89] | 1 to 3 µg/mL (≈ 2.71 to 8.12 µM) | 5 to 25 µg/mL (≈ 13.5 to 67.7 µM) | > 50 µg/mL
10 | CCOC(=O)NC(=O)c1ccsc1NC(=O)c1cc2ccccc2s1 [Compound 90] | < 1 µg/mL | < 5 µg/mL | 25 to 50 µg/mL (≈ 66.8 to 134 µM)
11 | CCOC(=O)NC(=O)c1ccsc1NC(=O)c1ccc(=O)[nH]n1 [Compound 91] | 1 to 3 µg/mL (≈ 2.97 to 8.92 µM) | < 5 µg/mL | > 50 µg/mL
12 | CCOC(=O)NC(=O)c1ccsc1NC(=O)C1COc2ccccc2O1 (stereo not shown) [Compound 92] | > 3 µg/mL | 5 to 25 µg/mL (≈ 13.3 to 66.4 µM) | 25 to 50 µg/mL (≈ 66.4 to 133 µM)
13 | CCOC(=O)NC(=O)c1ccsc1NC(=O)c1cn2ncccc2n1 [Compound 93] | < 1 µg/mL | < 5 µg/mL | > 50 µg/mL
14 | CCOC(=O)NC(=O)c1ccsc1NC(=O)c1nc2cnc(C)cc2s1 [Compound 94] | < 1 µg/mL | > 25 µg/mL | > 50 µg/mL
15 | CCOC(=O)NC(=O)c1ccsc1NC(=O)c1nc2c(s1)CCN(c1ccccc1)C2 [Compound 97] | < 1 µg/mL | > 25 µg/mL | > 50 µg/mL
16 | C=CCOC(=O)NC(=O)c1ccsc1NC(=O)c1nc2cnccc2s1 [Compound 99] | < 1 µg/mL | < 5 µg/mL | 25 to 50 µg/mL (≈ 64.4 to 129 µM)

Row | SMILES | MIC (Mtb [1]) | MIC (Mtb [2]) | CC50 (in vitro)
17 | C#CCOC(=O)NC(=O)c1ccsc1NC(=O)c1nc2cnccc2s1 [Compound 100] | < 1 µg/mL | > 25 µg/mL | 25 to 50 µg/mL (≈ 64.7 to 129 µM)
18 | O=C(NC(=O)c1ccsc1NC(=O)c1nc2cnccc2s1)OCc1ccccc1 [Compound 101] | < 1 µg/mL | 5 to 25 µg/mL (≈ 11.4 to 57 µM) | > 50 µg/mL
19 | O=C(NC(=O)c1ccsc1NC(=O)c1nc2cnccc2s1)OC1CCOC1 (stereo not shown) [Compound 102] | < 1 µg/mL | < 5 µg/mL | > 50 µg/mL
20 | COCCOC(=O)NC(=O)c1ccsc1NC(=O)c1nc2cnccc2s1 [Compound 103] | < 1 µg/mL | > 25 µg/mL | > 50 µg/mL
21 | CC(C)OC(=O)NC(=O)c1cc(F)sc1NC(=O)c1nc2cnccc2s1 [Compound 104] | < 1 µg/mL | < 5 µg/mL | < 25 µg/mL
22 | CCOC(=O)NC(=O)c1ccsc1NC(=O)c1cccc2cccnc12 [Compound 112] | > 3 µg/mL | > 25 µg/mL | > 50 µg/mL
23 | CCOC(=O)NC(=O)c1ccsc1NC(=O)c1ccc2cnccc2n1 [Compound 113] | > 3 µg/mL | > 25 µg/mL | > 50 µg/mL
24 | CCOC(=O)NC(=O)c1ccsc1NC(=O)c1cc(OC)c2ccccc2n1 [Compound 114] | > 3 µg/mL | > 25 µg/mL | > 50 µg/mL
25 | CCOC(=O)NC(=O)c1ccsc1NC(=O)c1cc(O)nc2ccccc12 [Compound 115] | > 3 µg/mL | > 25 µg/mL | > 50 µg/mL
26 | CCOC(=O)NC(=O)c1ccsc1NC(=O)c1cc2ccccc2cn1 [Compound 116] | > 3 µg/mL | > 25 µg/mL | > 50 µg/mL
27 | CCOC(=O)NC(=O)c1ccsc1NC(=O)c1cc(C(F)(F)F)nc2ccccc12 [Compound 117] | > 3 µg/mL | > 25 µg/mL | < 25 µg/mL
28 | CCOC(=O)NC(=O)c1ccsc1NC(=O)c1ccnc(NC(=O)C(C)(C)C)n1 [Compound 118] | > 3 µg/mL | 5 to 25 µg/mL (≈ 11.9 to 59.6 µM) | > 50 µg/mL
29 | CCOC(=O)NC(=O)c1ccsc1NC(=O)c1ccc2c(c1)CCCC2 [Compound 119] | > 3 µg/mL | > 25 µg/mL | > 50 µg/mL
30 | CCOC(=O)NC(=O)c1c(NC(=O)c2nc3ccccc3s2)sc2c1CCOC2 [Compound 242] | – | > 25 µg/mL | > 50 µg/mL
31 | CC(OC(=O)NC(=O)c1ccsc1NC(=O)c1cnc2ccnn2c1)C(F)(F)F (stereo not shown) [Compound 326] | > 3 µg/mL | > 25 µg/mL | –
